From PMC11855827, “High-Throughput Screening of Five Compound Libraries for Anthelmintic Activity and Toxicity Leads to the Discovery of Two Flavonoid Compounds” (International Journal of Molecular Sciences, 2025)
Values joined by “and” are separate entries in the source; they are usually repeats but may differ in a detail not shown here. Equal values may be shown once.

System: C. elegans
Details: Table S2, C. elegans SS assay, 110 μM, averages of 4 data points

Molecule	Percentage of motility inhibition 0 h	Percentage of motility inhibition 24 h [%]
COc1cc(/C=C/C(=O)O)ccc1O [Ferulic acid]	58%	8
C[C@H]1CC[C@H]2[C@H](C)[C@@H]3CC[C@@H]4[C@@H](C[C@H]5[C@H]4C[C@@H](O)[C@H]4C[C@@H](O)CC[C@@]45C)[C@@H]3CN2C1 [Hupehenine]	0%	10
COc1cc2c(cc1O)CC[n+]1cc3c4c(ccc3cc1-2)OCO4 [Groenlandicine]	0%	0
CC1=CC(=O)[C@@H](O)[C@]2(C)[C@H]3[C@@H](O)[C@H](O)[C@@]4(C)OC[C@@]35[C@@H](C[C@@H]12)OC(=O)[C@H](O)[C@]54O [Bruceine D]	25%	54
C[N+](C)(C)CCO.[Cl-] [Choline (chloride)]	51%	17
CCCCCCCCCCCCCCCCCC(=O)NCc1ccccc1 [N‐Benzyloctadecanamide]	35%	17
COc1ccc(-c2cc(=O)c3c(OC)c(OC)c(OC)cc3o2)cc1 [Scutellarein tetramethyl ether]	0%	0
Nc1ncnc2nc[nH]c12.Nc1ncnc2nc[nH]c12.O=S(=O)(O)O [Adenine (hemisulfate)]	3%	5
[Cl-].c1c2c(cc3c1OCO3)-c1cc3ccc4c(c3c[n+]1CC2)OCO4 [Coptisine (chloride)]	1%	6
COC(=O)CC(NC(=O)[C@@H](NC(=O)OC(C)C)C(C)C)c1ccc(Cl)cc1 (stereo partly shown) [Valifenalate]	26%	3
C1CNCCN1.O=C(O)CC(O)C(=O)O (stereo not shown) [Piperazine (malate)]	26%	14
COc1cc2c(cc1O)[C@@H](Cc1ccc(O)c(Oc3ccc(C[C@@H]4c5cc(OC)c(OC)cc5CCN4C)cc3)c1)N(C)CC2 [Daurisoline]	23%	12
CC(=O)O[C@@]1(C)C[C@@H](O)[C@]2(O)C=CO[C@@H](O[C@@H]3O[C@H](CO)[C@@H](O)[C@H](O)[C@H]3O)[C@@H]21 [8-O-Acetylharpagide]	10%	29
CC1(C)CC[C@]2(C(=O)O)CC[C@]3(C)C(=CC[C@@H]4[C@@]5(C)CC[C@H](O[C@@H]6OC[C@H](O)[C@H](O)[C@H]6O)[C@@](C)(CO)[C@@H]5CC[C@]43C)[C@@H]2C1 [Cauloside A]	12%	24
CC(C)OC(=O)[C@H](C)N[P@](=O)(CO[C@H](C)Cn1cnc2c(N)ncnc21)Oc1ccccc1.O=C(O)/C=C/C(=O)O [GS‐7340 (fumarate)]	20%	8
CN1CCN(c2ccc(N3C[C@H](CO)OC3=O)cc2F)C=N1 [Delpazolid]	2%	3
COc1ccc(-c2coc3cc(O[C@@H]4O[C@H](CO)[C@@H](O)[C@H](O)[C@H]4O)ccc3c2=O)cc1O [Calycosin‐7‐O‐β‐D‐glucoside]	20%	11
COc1ccc(-c2coc3c([C@@H]4O[C@H](CO)[C@@H](O)[C@H](O)[C@H]4O)c(O)ccc3c2=O)cc1 [4'‐Methoxypuerarin]	14%	3
COC(=O)[C@@]1(C)CC[C@]2(C(=O)O)CC[C@]3(C)C(=CC[C@@H]4[C@@]5(C)C[C@H](O)[C@H](O[C@@H]6OC[C@@H](O[C@@H]7O[C@H](CO)[C@@H](O)[C@H](O)[C@H]7O)[C@H](O)[C@H]6O)[C@@](C)(CO)[C@@H]5CC[C@]43C)[C@@H]2C1 [Esculentoside A]	17%	3
C[C@@H]1CC[C@]2(C(=O)O[C@@H]3O[C@H](CO)[C@@H](O)[C@H](O)[C@H]3O)CC[C@]3(C)C(=CC[C@@H]4[C@@]5(C)C[C@@H](O)[C@H](O)C(C)(C)[C@@H]5CC[C@]43C)[C@@H]2[C@]1(C)O [Rosamultin]	21%	1
Diniconazole	19%	5
COc1ccc([C@@H]2CC(=O)c3c(O)cc(O[C@@H]4O[C@H](CO)[C@@H](O)[C@H](O)[C@H]4O[C@@H]4O[C@@H](C)[C@H](O)[C@@H](O)[C@H]4O)cc3O2)cc1O [Neohesperidin]	14%	0

Molecule	Percentage of motility inhibition 0 h	Percentage of motility inhibition 24 h [%]
(±)‐10‐Hydroxycamptothecin	0%	0
N=C(N)c1ccc(OCCCCCOc2ccc(C(=N)N)cc2)cc1.O=S(=O)(O)CCO.O=S(=O)(O)CCO [Pentamidine (isethionate)]	0%	0
O=c1c(-c2ccc(O)cc2)coc2cc(O[C@@H]3O[C@H](CO)[C@@H](O)[C@H](O)[C@H]3O)ccc12 [Daidzin]	47% and 26%	
Hyaluronic acid	0%	4
COc1ccc(-c2coc3cc(O)cc(O)c3c2=O)cc1 [Biochanin A]	7%	0
CC(C)=CCc1c(-c2ccc(O)cc2O)oc2c(CC=C(C)C)c(O)cc(O)c2c1=O [Mulberrin]	32%	5
COc1cc(O)c(CC=C(C)C)c2c1C(=O)C[C@@H](c1ccc(O)cc1)O2 [(2S)‐Isoxanthohumol]	0%	2
CO[C@@]1(NC(=O)CSCC#N)C(=O)N2C(C(=O)[O-])=C(CSc3nnnn3C)CS[C@@H]21.[Na+] [Cefmetazole (sodium)]	7%	25
Oc1ccc2c(c1)OC[C@H]1c3cc4c(cc3O[C@@H]21)OCO4 [(-)-Maackiain]	26%	26
C[N+](C)(CCOc1ccccc1)Cc1ccccc1.O=C([O-])c1cc2ccccc2cc1O [Bephenium (hydroxynaphthoate)]	12%	5
Cn1c[n+]([C@@H]2O[C@H](CO)[C@@H](O)[C@H]2O)c2nc(N)[nH]c(=O)c21 [7‐Methylguanosine]	0%	0
CC(C)(C)NCc1cc(Nc2ccnc3cc(Cl)ccc23)c2c(c1O)CCCC2.O=P(O)(O)O.O=P(O)(O)O [Naphthoquine (phosphate)]	28%	8
Cc1ccn(C)n1 [1,3‐Dimethylpyrazole]	6%	3
CC1(C)CC[C@]2(C(=O)O[C@@H]3O[C@H](CO)[C@@H](O)[C@H](O)[C@H]3O)CC[C@]3(C)C(=CC[C@@H]4[C@@]5(C)CC[C@H](O[C@@H]6O[C@H](C(=O)O)[C@@H](O)[C@H](O)[C@H]6O[C@@H]6O[C@H](CO)[C@@H](O)[C@H](O)[C@H]6O)C(C)(C)[C@@H]5CC[C@]43C)[C@@H]2C1 [Ginsenoside Ro]	1%	0
CO[C@@H]1[C@@H](OC(N)=O)[C@@H](O)[C@H](Oc2ccc3c([O-])c(NC(=O)c4ccc(O)c(CC=C(C)C)c4)c(=O)oc3c2C)OC1(C)C.[Na+] [Novobiocin (sodium)]	6%	6
O=C(O)Cc1c[nH]c2ccccc12 [3‐Indoleacetic acid]	4%	11
CC(C)[C@@H]1[C@H]2OC(=O)[C@@H]1[C@@H]1CC[C@@H]3CN(C)[C@H]2[C@@]31C [Dendrobine]	0%	3
CO/N=C(\C(=O)N[C@@H]1C(=O)N2C(C(=O)[O-])=CCS[C@H]12)c1csc(N)n1.[Na+] [Ceftizoxime (sodium)]	0%	3
O=C(O[C@@H]1Cc2c(O)cc(O)cc2O[C@@H]1c1cc(=O)c(O)c2c(O)c(O)cc([C@H]3Oc4cc(O)cc(O)c4C[C@H]3O)c2c1)c1cc(O)c(O)c(O)c1 [Theaflavin‐3‐gallate]	8%	22
c1ccc2c(Cc3[nH]c4ccccc4c3Cc3c[nH]c4ccccc34)c[nH]c2c1 [2,3‐Bis(3‐indolylmethyl)indole]	21%	9
(±)‐Naringenin	0%	18
